# Results taken from patent publication US8399439B2, “2-methylene-19,26-dinor-(20S,22E,25R)-vitamin D analogs” (Wisconsin Alumni Research Foundation, priority 2008, dated 2013).
# Columns and labels:
# [1] = test system: vitamin D-deficient rats; assay: Intestinal calcium transport (everted gut sac method); format: in vivo, rat; details: FIG. 5
# Protocol: (§1) Male, weanling Sprague-Dawley rats were placed on Diet 11 (0.47% Ca) diet+AEK oil for one week followed by Diet 11 (0.02% Ca)+AEK oil for 3 weeks. The rats were then switched to a diet containing 0.47% Ca for one week followed by two weeks on a diet containing 0.02% Ca. Dose administration began during the last week on 0.02% calcium diet. Four consecutive ip doses were given approximately 24 hours apart. Twenty-four hours after the last dose, blood was collected from the severed neck and the concentration of serum calcium determined as a measure of bone calcium mobilization. The first 10 cm of the intestine was also collected for intestinal calcium transport analysis using the everted gut sac method.
# Intestinal calcium transport was evaluated in the same group of animals using the everted gut sac method (FIG. 5).
# [2] = test system: HL-60 cells; assay: HL-60 cell differentiation (nitro blue tetrazolium reduction); format: cell-based, human; details: for EC50: HL-60 cells, 4 days, FIG. 2
# Protocol: The study drugs were dissolved in ethanol and the concentrations determined using UV spectrophotometry. Serial dilutions were prepared so that a range of drug concentrations could be tested without changing the final concentration of ethanol (≦0.2%) present in the cell cultures.
# Human promyelocytic leukemia (HL60) cells were grown in RPMI-1640 medium containing 10% fetal bovine serum. The cells were incubated at 37° C. in the presence of 5% CO2.
# HL60 cells were plated at 1.2×10^5 cells/ml. Eighteen hours after plating, cells in duplicate were treated with drug. Four days later, the cells were harvested and a nitro blue tetrazolium reduction assay was performed (Collins et al., 1979; J. Exp. Med. 149:969-974). The percentage of differentiated cells was determined by counting a total of 200 cells and recording the number that contained intracellular black-blue formazan deposits. Verification of differentiation to monocytic cells was determined by measuring phagocytic activity (data not shown).
# [3] = test system: 24-hydroxylase (24Ohase) gene promoter; assay: In vitro transcription assay, luciferase reporter in ROS 17/2.8 (bone) cells; format: cell-based; details: for EC50: ROS 17/2.8 cells, 24-hydroxylase promoter-luciferase, 16 h, FIG. 3, read-out: EC50, transcriptional activity in bone cells
# Protocol: Transcription activity was measured in ROS 17/2.8 (bone) cells that were stably transfected with a 24-hydroxylase (24Ohase) gene promoter upstream of a luciferase reporter gene (Arbour et al., 1998). Cells were given a range of doses. Sixteen hours after dosing the cells were harvested and luciferase activities were measured using a luminometer.
# RLU=relative luciferase units.
# [4] = molecular target: T1, full-length recombinant rat vitamin D receptor (Rattus norvegicus, UniProt P13053); assay: Vitamin D receptor competitive binding with [3H]-1,25(OH)2D3; details: full-length recombinant rat VDR; FIG. 1; read-out: Ki, competition with [3H]-1,25(OH)2D3 for binding to vitamin D receptor
# T1 construct: Full-length recombinant rat receptor was expressed in E. coli; His tag (C); made in house; host or cells: E. coli BL21 (DE3) Codon Plus RIL
# T1 sequence (P13053 1-423): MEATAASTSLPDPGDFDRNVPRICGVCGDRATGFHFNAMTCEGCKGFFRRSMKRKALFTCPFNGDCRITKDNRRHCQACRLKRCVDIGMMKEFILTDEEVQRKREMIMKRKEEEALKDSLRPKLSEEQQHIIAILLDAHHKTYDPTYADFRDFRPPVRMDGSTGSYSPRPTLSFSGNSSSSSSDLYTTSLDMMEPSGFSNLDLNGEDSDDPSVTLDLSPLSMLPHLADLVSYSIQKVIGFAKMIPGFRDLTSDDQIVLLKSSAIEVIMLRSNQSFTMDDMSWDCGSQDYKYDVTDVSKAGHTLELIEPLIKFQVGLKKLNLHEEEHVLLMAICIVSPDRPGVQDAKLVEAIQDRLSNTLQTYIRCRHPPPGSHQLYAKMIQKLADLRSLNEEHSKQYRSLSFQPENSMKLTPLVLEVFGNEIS
# Protocol: Full-length recombinant rat receptor was expressed in E. coli BL21 (DE3) Codon Plus RIL cells and purified to homogeneity using two different column chromatography systems. The first system was a nickel affinity resin that utilizes the C-terminal histidine tag on this protein. The protein that was eluted from this resin was further purified using ion exchange chromatography (S-Sepharose Fast Flow). Aliquots of the purified protein were quick frozen in liquid nitrogen and stored at −80° C. until use. For use in binding assays, the protein was diluted in TEDK50 (50 mM Tris, 1.5 mM EDTA, pH7.4, 5 mM DTT, 150 mM KCl) with 0.1% Chaps detergent. The receptor protein and ligand concentration were optimized such that no more than 20% of the added radiolabeled ligand was bound to the receptor.
# Radiolabeled and unlabeled ligands were added to 100 mcl of the diluted protein at a final ethanol concentration of ≦10%, mixed and incubated overnight on ice to reach binding equilibrium. The following day, 100 mcl of hydroxylapatite slurry (50%) was added to each tube and mixed at 10-minute intervals for 30 minutes. The hydroxylapaptite was collected by centrifugation and then washed three times with Tris-EDTA buffer (50 mM Tris, 1.5 mM EDTA, pH 7.4) containing 0.5% Titron X-100. […] Total binding was determined from the tubes containing only radiolabeled ligand.
# [5] = test system: vitamin D-deficient rats; assay: Bone calcium mobilization (serum calcium); format: in vivo, rat; details: rats on low calcium diet (0.02%), FIG. 4
# Protocol: as §1
# Calcium mobilization from bone and intestinal calcium absorption in vitamin D-deficient animals. Using vitamin D-deficient rats on a low calcium diet (0.02%), the activities of SOR-1 and 1,25(OH)2D3 in intestine and bone were tested.
# [6] = 780 pmol/day ip for 4 consecutive days
# [7] = 2,340 pmol/day ip for 4 consecutive days
# [8] = fold more active than 1α,25-dihydroxyvitamin D3
"EC50 ([2]; Homo sapiens, 96 h) [nM]",Ki [4] [nM],Compound,"intestinal calcium transport activity [1, 6]","intestinal calcium transport activity [1, 7]","HL-60 cell differentiation activity relative to 1α,25-dihydroxyvitamin D3 [2, 8]",EC50 [3] [nM],"transcriptional activity in bone cells relative to 1α,25-dihydroxyvitamin D3 [3, 8]","bone calcium mobilization [5, 7]",EC50 [2] [nM],"bone calcium mobilization [5, 6]",serum calcium levels ([5]; all dosages)
0.9,0.1,"C=C1[C@H](O)CC(=C/C=C2\CCC[C@]3(C)[C@@H]([C@@H](C)/C=C/C[C@@H](C)O)CC[C@@H]23)C[C@H]1O [SOR-1, 2-methylene-19,26-dinor-(20S,22E,25R)-1α,25-dihydroxyvitamin D3]","almost no activity as compared to 1,25(OH)2D3","activity similar to 1,25(OH)2D3",about 3 times,0.08,about 3 times,did not result in any mobilization of bone calcium,,,
,,"C=C1/C(=C\C=C2/CCC[C@]3(C)[C@@H]([C@H](C)CCCC(C)(C)O)CC[C@@H]23)C[C@@H](O)C[C@@H]1O [1α,25-dihydroxyvitamin D3, reference compound]",,,,0.2,,,2,significant activity,increased serum calcium levels at all dosages
